Laboratory results published in patent US20160317561A1, “USE OF D-RIBOSE FOR FATIGUED SUBJECTS” (Bioenergy Life Science, Inc., priority 2008, published 2016).

Tests used:
Type in all cases: in vivo, human
[1] = Sub-maximal cardiopulmonary exercise (CPX) treadmill testing in fatigued aging subjects; settings: for Hr to METS ratio at AT, mean change / Net Energy Expenditure at AT, mean change / O2 Uptake Slope, mean change / VE Slope, mean change / VO2 at AT, mean change: 3.0 g D-ribose bid orally
Method: The pilot study was performed enrolling 20 aging subjects, greater than 45 years of age, who were self-perceived as fatigued and tired as their customary daily state for at least one month, with no strenuous exercise or physical labor to account for the fatigue. No subjects had documented histories of heart/lung or metabolism/endocrine disease, as set out more fully below in the inclusion criteria. The causes of fatigue in aging subjects is unknown. It can be hypothesized that the causes are mental, since lowered cognition and feeling of wellbeing is also common in aging persons. The aforementioned studies of unhealthy persons or persons exercising strenuously found a dose of five to eight grams of D-ribose, taken two to four times per day was recommended to raise or maintain ATP levels. Lower amounts such as in this study, were not found adequate for those subjects. For the healthy, but sedentary and aging subjects for this study, it was expected that they were already at an optimum ATP level. Two doses of oral D-ribose at 1.5 grams or 3.0 grams bid were selected to test the hypothesis that raising ATP levels with D-ribose could have some benefit in improving fatigue. Each subject consumed the oral D-ribose for two weeks, dissolved in a small amount of water. Study assessments were done at baseline, and at one and two weeks during the trial. The lower dose study was continued an additional two weeks. The subjective and objective assessment parameters included: sub-maximal exercise performance, resting and sub-maximal energy expenditure, the SF-36 Quality of Life Assessment and a subjective questionnaire for evaluating fatigue.
Energy expenditure was calculated both at rest (BMR) and also at the anaerobic threshold (AT) using standard formulae incorporated into CPX-based software. Net energy expenditure was determined by subtracting resting values from those calculated at the subject's AT. In addition, the completed activity log was used to determine potential changes in cumulative (daily and weekly) energy expenditure throughout the first and second weeks while on D-ribose. Further, work efficiency was determined by calculating the reciprocal of aerobic power or the VO2 to WR ratio, as computed at the anaerobic threshold.
The formula for calculation of energy expenditure at the anaerobic threshold was based, in part, on the actual measured resting energy expenditure (RER) and VO2 at that level of exercise, knowing that a subject can sustain a steady state at the initial phase of the AT, which represents a particular phase of exercise whereby energy metabolism due to an increase in oxygen consumption resulting in a reduction in tissue oxygen perfusion shifts to an anaerobic instead of an oxidative phosphorylation. The AT interval varies from person to person depending on physical condition or training. Individuals who are not trained and relatively deconditioned have a low AT, as compared to elite endurance athletes having a high AT. At the AT, fuel mix for skeletal muscle metabolism is somewhat balanced. This point occurs in the range between 40% to 60% of the maximum VO2 attained. For example, assuming that equal amounts of fats and carbohydrates are oxidized at an RER of 0.85 just prior to AT onset, energy expenditure can be calculated using the formula VO2(L/min)×4.862 kcal/min for each liter of oxygen consumed. Likewise, if an individual was at an RER of 0.89 under steady state conditions, their absolute VO2 in L/min would be multiplied by a factor of 4.911. Net energy expenditure would be calculated subtracting the subject's resting energy expenditure (REE) or BMR. METS or net metabolic equivalents was also used to express the subject's activity level at their AT.
For this study, a ramping incremental treadmill exercise protocol was followed. […] The treadmill exercise was increased from 0 mph to 3.0 mph and the elevation increased from 0 to 12%, over the test time of six minutes. […]

[2] = SF-36 Quality of Life Questionnaire in fatigued aging subjects
Source text: The SF-36 Quality of Life Questionnaire was also used. Subjects were asked to fill out a questionnaire on the normal activities that they participated in. An example of the SF-36 Quality of Life Questionnaire is presented in Appendix A. These activities included household chores, walking, yard work and whether the subject routinely climbed stairs. Additionally, subjects were asked how many days in the past week they felt good; missed work or routine chores because of fatigue; how tired they felt and their state on awakening in the morning. In order to understand what the self-perception of fatigue (described as fatigue, tiredness or loss of vitality) indicates, it is helpful to look at the questions asked in SF-36 Quality of Life questionnaire (Appendix A). The SF-36 questionnaire is applied particularly to evaluating physician-prescribed therapies, but the gender-neutral, generic, coherent and easily administered questions are useful to evaluate any discrete cohort of subjects in the categories desired. […] The first three categories as listed are directed to the subject's self-perceived status. The remaining categories are directed to the extent that status (whatever that status may be), affects the subject's functioning roles in several categories.

[3] = Fatigue questionnaire / Visual Analog Scale (VAS) for fatigue in fatigued aging subjects; settings: for Fatigue questionnaire: lower dose (1.5 g bid)
Method: Subjects were monitored at baseline and during the two week treatment period for their perceived fatigue activity levels. Subjects were asked to rate on a ten point scale (1=near dead to 10=excellent) the following questions: How is your energy? (1=no energy, 10=excellent); How do you sleep? (1=no sleep, 10=8 hours without waking); How is your mental clarity? (1=“brain fog”, 10=good clarity); How bad is your pain?; How is your overall sense of well being? At weeks one and two, subjects were also asked to describe their overall rating of symptoms of fatigue as compared to their symptoms at baseline. The five point scale was; much better, somewhat better; no change; somewhat worse and much worse. The investigators selected end-points of some assessments to determine whether the subjects remained the same or improved at one and two weeks. The results were represented in a Visual Analog Scale (VAS) for fatigue. Nine subjects completed the VAS forms of subjective estimate of tiredness (Appendix B) on a scale of 1 (completely disagree) to 7 (completely agree).

[4] = Side effects of D-ribose administration in the study subjects; settings: higher (3.0 g bid) or lower (1.5 g bid) doses
Source text: D-ribose ingestion is known to have the potential to cause gastrointestinal distress, including flatulence and diarrhea, and also can lower blood glucose.

Structure (SMILES): O=C[C@H](O)[C@H](O)[C@H](O)CO [D-ribose]
- Hr to METS ratio at AT, mean change ([1]; Week 1 vs baseline): −3.00 +/− 2.83
- Net Energy Expenditure at AT, mean change ([1]; Week 1 vs baseline): 9.32 +/− 7.67
- O2 Uptake Slope, mean change ([1]; Week 1 vs baseline): 0.17 +/− 0.19
- VE Slope, mean change ([1]; Week 1 vs baseline): −2.26 +/− 1.69
- VO2 at AT, mean change ([1]; Week 1 vs baseline): 1.53 +/− 0.90
- Hr to METS ratio at AT, mean change ([1]; Week 2 vs baseline): −3.67 +/− 3.27
- Net Energy Expenditure at AT, mean change ([1]; Week 2 vs baseline): 16.23 +/− 6.13
- O2 Uptake Slope, mean change ([1]; Week 2 vs baseline): 0.24 +/− 0.15
- VE Slope, mean change ([1]; Week 2 vs baseline): −2.44 +/− 2.24
- VO2 at AT, mean change ([1]; Week 2 vs baseline): 2.13 +/− 0.78
- Increase in resting energy expenditure at the AT onset ([1]; 3.0 g bid orally, end of two weeks): 8.2%
- Rise in net energy expenditure at the AT onset ([1]; 3.0 g bid orally, end of two weeks, p<0.0005): 32%
- Increase in VO2 at the AT onset ([1]; 3.0 g bid orally, end of two weeks, p<0.001): 18%
- Increase in heart rate at the AT onset ([1]; 3.0 g bid orally, end of two weeks, p=0.012): 9.2%
- Decrease in heart rate to METS ratio ([1]; 3.0 g bid orally, two weeks): 11.7%
- Decrease in oxygen pulse indexed to inspiratory drive ([1]; 3.0 g bid orally, two weeks): 8.9%
- Decrease in ventilatory efficiency slope ([1]; 3.0 g bid orally, two weeks): 8.5%
- Increase in change in oxygen pulse times change in expired CO2 at AT ([1]; 3.0 g bid orally, two weeks): 60.8%
- Average calorie burned from fat substrate at the AT ([1]; 3.0 g bid orally, two weeks, most subjects): did not change significantly
- CPX parameters (objective measures) ([1]; lower dose (1.5 g bid), two weeks to four weeks): positive trend
- Response to the SF-36 Questionnaire ([2]; lower dose (1.5 g bid), four weeks): improvement in symptoms of general health, vitality and mental outlook
- SF-36 Bodily pain (interference with activities) ([2]; results at two weeks): significant improvement
- SF-36 Emotional function role ([2]; results at two weeks): significant improvement
- SF-36 Social function role ([2]; results at two weeks): significant improvement
- SF-36 Vitality ([2]; results at two weeks, initially low at 40th percentile): significant improvement
- SF-36 Physical competence ([2]; results at two weeks, initially near normal): slight improvement
- SF-36 General health ([2]; results at two weeks, initially normal): slight improvement
- SF-36 Role physical function ([2]; results at two weeks, initially slightly subnormal): significant improvement
- Social functionality, emotional wellbeing, mental health and mental competence (questionnaire) ([2]; two weeks, mental categories based on additional questions not in SF-36): increases
- Fatigue questionnaire ([3]; continued for an additional two weeks (four weeks), FIG. 7): Continued improvement
- Fatigue questionnaire ([3]; two weeks): slight reduction in fatigue
- Decrease in self-perceived levels of fatigue (average) ([3]; six grams of D-ribose per day (3.0 g bid), two weeks): 50%
- Side effects of D-ribose administration [4]: No subjects in this study, at either the higher or the lower doses, experienced any side effects
